Where two headings read alike, the source gives them in different places.
How the values were obtained:
[1] = test system: HIV-1 laboratory strain, NL4-3; experiment: MT-4 cytoprotection assay; type: cell-based
Protocol: The HTLV-1 transformed T cell line, MT-4, is highly susceptible to HIV-1 infection. Anti-HIV-1 agents were evaluated in this target cell line by protection from the HIV-induced cytopathic effect. In this assay, viability of both HIV-1 and mock-infected cells was assessed in a […] assay that monitors the ability of metabolically-active cells to reduce the tetrazolium salt WST-1. Cytoprotection by antiviral compounds is indicated by the positive readout of increased WST-1 cleavage.
Briefly, exponentially growing MT-4 cells were mock-infected or batch-infected with the HIV-1 laboratory strain, NL4-3, at a multiplicity of infection of 0.0005. Following a two hour infection, the cells were washed to remove unbound virus and plated in the presence of increasing concentrations of compound. After four days incubation, cytoprotection in the infected cells and compound toxicity in mock-infected cells were analyzed using the WST-1 assay.

HIV-1NL4-3 = experiment: P4-MAGI assay; type: cell-based
In short: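 HeLa-derived CD4+ P4 cells carrying an LTR-driven lacZ were infected with HIV-1NL4-3 at MOI 1 with DEAE-Dextran, then compound added in increasing concentrations right after virus; infection reported as Tat-induced β-galactosidase. TC50 measured by WST-1 in mock-infected cells.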

[2] = Human immunodeficiency virus 1, NL43, MT4, 96 h, MT-4 cells, four days incubation, WST-1 readout, read-out: MT4 EC50
[3] = Human immunodeficiency virus 1, 24 h, P4 cells, 24 hour incubation, β-galactosidase expression, read-out: P4-MAGI IC50
[4] = Human immunodeficiency virus 1, NL43, less than about 100 nm, read-out: MT-4 assay EC50 (concentration of compound that reduces the virus induced cytopathic effect by 50%)

Compound	EC50 [1, 2]	IC50 (HIV-1NL4-3; [3])	EC50 [1, 4]	IC50 (HIV-1NL4-3; Human immunodeficiency virus 1, text statement, less than about 100 nm, read-out: P4-MAGI assay IC50)
C=C(C)[C@@H]1CC[C@]2(C(=O)NCCc3cccc(C(=O)NCc4ccc(C(=O)N[C@@H](C(=O)O)C(C)C)cc4)c3)CC[C@]3(C)C(CCC4[C@@]5(C)CC[C@H](O)C(C)(C)C5CC[C@]43C)C12 (stereo partly drawn) [Example 168]	6 nM	14 nM	–	–
C=C(C)[C@@H]1CC[C@]2(C(=O)NCCc3cccc(C(=O)NCc4ccc(OCCCn5ccnc5)c(C(=O)O)c4)c3)CC[C@]3(C)C(CCC4[C@@]5(C)CC[C@H](O)C(C)(C)C5CC[C@]43C)C12 (stereo partly drawn) [Example 242]	91 nM	41.3 nM	–	–
C=C(C)[C@@H]1CC[C@]2(C(=O)NCc3cccc(CNCc4nc5ccc(C(=O)O)cc5[nH]4)c3)CC[C@]3(C)C(CCC4[C@@]5(C)CC[C@H](O)C(C)(C)C5CC[C@]43C)C12 (stereo partly drawn) [Example 80]	1000 nM	242 nM	–	–
C=C(C)[C@@H]1CC[C@]2(C(=O)NCCc3cccc(C(=O)NCc4ccc(S(=O)(=O)NCCN5CCOCC5)cc4)c3)CC[C@]3(C)C(CCC4[C@@]5(C)CC[C@H](O)C(C)(C)C5CC[C@]43C)[C@@H]12 (stereo partly drawn) [Example 148]	53 nM	6 nM	–	–
C=C(C)[C@@H]1CC[C@]2(C(=O)NCCc3ccc(C)c(C(=O)NCc4ccc(C(=O)O)cn4)c3)CC[C@]3(C)C(CCC4[C@@]5(C)CC[C@H](O)C(C)(C)C5CC[C@]43C)C12 (stereo partly drawn) [Example 273]	1860 nM	127 nM	–	–
C=C(C)[C@@H]1CC[C@]2(C(=O)NCCc3cccc(C(=O)N[C@@H](C)c4ccccn4)c3)CC[C@]3(C)C(CCC4[C@@]5(C)CC[C@H](O)C(C)(C)C5CC[C@]43C)C12 (stereo partly drawn) [Example 158]	> 10000 nM	249 nM	–	–
C=C(C)[C@@H]1CC[C@]2(C(=O)NCCc3cccc(C(=O)NCc4ccc(-c5nn[nH]n5)cn4)c3)CC[C@]3(C)C(CCC4[C@@]5(C)CC[C@H](O)C(C)(C)C5CC[C@]43C)C12 (stereo partly drawn) [Example 253]	3.5 nM	10.8 nM	–	–
C=C(C)[C@@H]1CC[C@]2(C(=O)NCc3cccc(C(=O)NCc4cccc(C(=O)OC)c4F)c3)CC[C@]3(C)C(CCC4[C@@]5(C)CC[C@H](O)C(C)(C)C5CC[C@]43C)C12 (stereo partly drawn) [Example 42]	42 nM	58.3 nM	< 100 nM	< 100 nM
C=C(C)[C@@H]1CC[C@]2(C(=O)NCCc3cccc(C(=O)NCc4ccc(O)c(C(=O)OC)c4)c3)CC[C@]3(C)C(CCC4[C@@]5(C)CC[C@H](O)C(C)(C)C5CC[C@]43C)C12 (stereo partly drawn) [Example 239]	105 nM	32.1 nM	–	–
C=C(C)[C@@H]1CC[C@]2(C(=O)NCCc3cccc(C(=O)NCC(O)CO)c3)CC[C@]3(C)C(CCC4[C@@]5(C)CC[C@H](O)C(C)(C)C5CC[C@]43C)C12 (stereo partly drawn) [Example 256]	204 nM	50.5 nM	–	–
C=C(C)[C@@H]1CC[C@]2(C(=O)NCCc3cccc(C(=O)NCc4ccc(N)cc4)c3)CC[C@]3(C)C(CCC4[C@@]5(C)CC[C@H](O)C(C)(C)C5CC[C@]43C)C12 (stereo partly drawn) [Example 181]	28 nM	19 nM	–	–
C=C(C)[C@@H]1CC[C@]2(C(=O)NCc3cccc(C(=O)NCCc4ccc(F)c(C(=O)OC)c4)c3)CC[C@]3(C)C(CCC4[C@@]5(C)CC[C@H](O)C(C)(C)C5CC[C@]43C)C12 (stereo partly drawn) [Example 33]	18 nM	135 nM	< 100 nM	–
C=C(C)[C@@H]1CC[C@]2(C(=O)NCc3cccc(C(=O)NCCNC(C)=O)c3)CC[C@]3(C)C(CCC4[C@@]5(C)CC[C@H](O)C(C)(C)C5CC[C@]43C)C12 (stereo partly drawn) [Example 4]	2300 nM	155 nM	–	–
C=C(C)[C@@H]1CC[C@]2(C(=O)NCc3cccc(C(=O)NCc4ccc(OCCCn5ccnc5)c(C(=O)OC)c4)c3)CC[C@]3(C)C(CCC4[C@@]5(C)CC[C@H](O)C(C)(C)C5CC[C@]43C)C12 (stereo partly drawn) [Example 121]	17 nM	21.3 nM	–	–
C=C(C)[C@@H]1CC[C@]2(C(=O)NCCc3cccc(C(=O)NCC4COCC(C(=O)O)O4)c3)CC[C@]3(C)C(CCC4[C@@]5(C)CC[C@H](O)C(C)(C)C5CC[C@]43C)C12 (stereo partly drawn) [Example 258]	984 nM	112 nM	–	–

Source: patent US20090275583A1, “ANTIVIRAL COMPOUNDS AND USE THEREOF” (Myriad Genetics, Incorporated, priority 2006, published 2009)
